Results: patent US20100316529A1, “Anti-Microbial Systems and Methods” (priority 2001, published 2010)
Values joined by “and” are separate entries in the source; they are usually repeats but may differ in a detail not shown here. Equal values may be shown once.

Columns and labels:
Type in all cases: cell-based
Kleb. oxytoca = assay: EDTA salt dilution test, MIC/MBC
Ent. cloacae = assay: EDTA salt dilution test, MIC/MBC; settings: three entries, Exhibit A1
Proteus vulgaris = assay: EDTA salt dilution test, MIC/MBC
Acinetobacter baumanii = assay: EDTA salt dilution test, MIC/MBC; settings: two entries, Exhibit A2
Ent. faecalis = assay: EDTA salt dilution test, MIC/MBC
Experimental: (§1) Protocol one: Broth dilutions:
(§2) Inoculate a 25 ml nutrient broth (Oxoid No2) in a sterile universal container with one of the following organisms; Pseudomonas aeruginosa, Proteus Mirabilis, E. coli, Klebsiella pneumoniae, Staph aureus, Coagulase negative staphylococci, Enterococcus faecalis or MRSA.
(§3) Incubate the broth at 37° C. overnight.
(§4) To make these concentrations put the EDTA needed for 10 mLs in only 9 mLs of broth in sterile universal containers, as this will be diluted further when the organisms are added.
(§5) Dilute the overnight broth cultures to 10^7 organisms/mL using more sterile nutrient broth.
(§6) Add 1 mL of this diluent to each of the EDTA series broths. This gives a final concentration of 10^6 organism/mL in the EDTA broths.
(§7) Incubate for 18 hours at 37° C.
(§8) Next day visually read the MIC's by observing the turbidity of the broths.
(§9) Plate out 1 uL of each dilution onto fresh blood agar plate and spread using a sterile plastic spreader.
(§10) Incubate overnight at 37° C.
(§11) Next day read the MBC's by performing colony counts.

Proteus mirabilis = assay: EDTA salt dilution test, MIC/MBC; settings: two entries
Experimental: as §1, §2, §3, §4, §5, §6, §7, §8, §9, §10, §11

S. aureus = assay: EDTA salt dilution test, MIC/MBC; settings: five entries, Exhibit A2
Experimental: as §1, §2, §3, §4, §5, §6, §7, §8, §9, §10, §11

S. lentus = assay: EDTA salt dilution test, MIC/MBC
Experimental: as §1, §2, §3, §4, §5, §6, §7, §8, §9, §10, §11

S. capitis = assay: EDTA salt dilution test, MIC/MBC; settings: two entries
Experimental: as §1, §2, §3, §4, §5, §6, §7, §8, §9, §10, §11

S. xylosus = assay: EDTA salt dilution test, MIC/MBC
Experimental: as §1, §2, §3, §4, §5, §6, §7, §8, §9, §10, §11

E. coli = assay: EDTA salt dilution test, MIC/MBC; settings: three entries, Exhibit A1
Experimental: as §1, §2, §3, §4, §5, §6, §7, §8, §9, §10, §11

S. simulans = assay: EDTA salt dilution test, MIC/MBC
Experimental: as §1, §2, §3, §4, §5, §6, §7, §8, §9, §10, §11

Kleb. pnemoniae = assay: EDTA salt dilution test, MIC/MBC; settings: two entries, Exhibit A1
Experimental: as §1, §2, §3, §4, §5, §6, §7, §8, §9, §10, §11

Pseudomonas sp. = assay: EDTA salt dilution test, MIC/MBC
Experimental: as §1, §2, §3, §4, §5, §6, §7, §8, §9, §10, §11

Pseudomonas aeruginosa = assay: EDTA salt dilution test, MIC/MBC; settings: two entries
Experimental: as §1, §2, §3, §4, §5, §6, §7, §8, §9, §10, §11

VRE = assay: EDTA salt dilution test, MIC/MBC; settings: two entries
Experimental: as §1, §2, §3, §4, §5, §6, §7, §8, §9, §10, §11

S. epidermidis = assay: EDTA salt dilution test, MIC/MBC; settings: two entries
Experimental: as §1, §2, §3, §4, §5, §6, §7, §8, §9, §10, §11

MRSA = assay: EDTA salt dilution test, MIC/MBC; settings: five entries, Exhibit A2
Experimental: as §1, §2, §3, §4, §5, §6, §7, §8, §9, §10, §11

Steno. maltophilia = assay: EDTA salt dilution test, MIC/MBC
Kleb. ornitholytica = assay: EDTA salt dilution test, MIC/MBC
Coryneform strait/amy = assay: EDTA salt dilution test, MIC/MBC
Cornyeform amycolatum = assay: EDTA salt dilution test, MIC/MBC
C. albicans = assay: EDTA agar dilution method, yeasts, MIC/MBC; settings: three entries, Exhibit C
Experimental: (§12) The bactericidal effects were measured as the Minimum Bactericidal Concentration (MBC), while the inhibitory effects were measured as the Minimum Inhibitory Concentration (MIC). In each case, the concentration was measured as milligrams of the disinfectant salt per milliliter of water (mg/ml).
(§13) Protocol 3: Agar dilutions.
(§14) Prepare nutrient agar plates with increasing concentrations of EDTA, 0, 0.5, 1, 1.5, 2, 4, 6, 8, 10, 15, 20, 25, 30 mg/mL, using the following method. • Pour 300 mL distilled water into a sterile glass bottle. • Add the appropriate amount of EDTA. This is the concentration desired ×300, in grams. • Once the EDTA has fully dissolved, add 8.4 g of Nutrient agar powder (Oxoid). Mix thoroughly. • Do this for each concentration of EDTA required. […] Do this until all the media is used up. Label the plates with the concentration of EDTA they contain. • These plates can then be stored, until they are needed, in a 4° C. fridge. • Use an automatic plate inoculator to inoculate each plate with 21 organisms.

C. glabrata = assay: EDTA agar dilution method, yeasts, MIC/MBC; settings: two entries, Exhibit C
Experimental: as §12, §13, §14

C. guilliermondii = assay: EDTA agar dilution method, yeasts, MIC/MBC; settings: Exhibit C
Experimental: as §12, §13, §14

C. tropicalis = assay: EDTA agar dilution method, yeasts, MIC/MBC; settings: Exhibit C
Experimental: as §12, §13, §14

C. parapsilosis = assay: EDTA agar dilution method, yeasts, MIC/MBC; settings: Exhibit C
Experimental: as §12, §13, §14

Ent. faeculm = assay: EDTA salt dilution test, MIC/MBC
C. lucitaniae = assay: EDTA agar dilution method, yeasts, MIC/MBC; settings: Exhibit C
Text: as §13
Do this until all the media is used up.

variety of microbes = assay: Efficacy of disinfectant salts of EDTA against a number of microbes; settings: general statement
Experimental: The Applicant has tested the efficacy of a number of disinfectant salts of EDTA against a number of microbes.
as §1, §2, §3
Next day make up a series of nutrient broths containing a dilution of the appropriate EDTA as in the following list; 0 mg/mL, 0.25 mg/mL, 0.5 mg/mL, 1.0 mg/mL, 1.5 mg/mL, 2.0 mg/mL, 4.0 mg/mL, 6.0 mg/mL, 8.0 mg/mL, 10 mg/mL, 15 mg/mL, 20 mg/mL, 25 mg/mL, 30 mg/ml, 40 mg/mL, 50 mg/mL, 60 mg/mL, 70 mg/mL, 80 mg/mL, 90 mg/mL, 100 mg/mL.
as §4, §5, §6, §7
Next day visually read the MIC's by observing the turbidity of the broths. […]
as §11

Question: With `N.N.O=C(O)CN(CCN(CC(=O)O)CC(=O)O)CC(=O)O` [Diammonium EDTA] as the compound, how does the “MBC, minimum concentration required to kill an entire population” value (“MBC, minimum concentration required” for short) (Kleb. oxytoca; Exhibit A1) read?
Answer: >10000 µg/mL

Question: And the “MIC, minimum concentration required to inhibit growth” value (“MIC … to inhibit growth” below) (Kleb. oxytoca; Exhibit A2)?
Answer: 1000 µg/mL

Question: What about the “MBC, minimum concentration required” value (Ent. cloacae) of the same compound?
Answer: >10000 µg/mL

Question: What about the “MBC, minimum concentration required” value (Proteus vulgaris; Exhibit A1) of the same compound?
Answer: >10000 µg/mL

Question: And the “MIC … to inhibit growth” value (Proteus vulgaris; Exhibit A2)?
Answer: <500 µg/mL

Question: And the “MIC … to inhibit growth” value (Acinetobacter baumanii)?
Answer: <500 µg/mL

Question: What about the “MBC, minimum concentration required” value (Ent. faecalis; Exhibit A1) of the same compound?
Answer: 15000 µg/mL

Question: And the “MIC … to inhibit growth” value (Ent. faecalis; Exhibit A2)?
Answer: 1000 µg/mL

Question: And the “MBC, minimum concentration required” value (Proteus mirabilis; Exhibit A1)?
Answer: >10000 µg/mL

Question: What about the “MIC … to inhibit growth” value (Proteus mirabilis; Exhibit A2) of the same compound?
Answer: <500 µg/mL

Question: What about the “MIC … to inhibit growth” value (S. aureus) of the same compound?
Answer: 1000 µg/mL

Question: What about the “MBC, minimum concentration required” value (S. lentus; Exhibit A1) of the same compound?
Answer: 10000 µg/mL

Question: And the “MIC … to inhibit growth” value (S. lentus; Exhibit A2)?
Answer: <500 µg/mL

Question: And the “MBC, minimum concentration required” value (S. capitis; Exhibit A1)?
Answer: 10000 µg/mL and 8000 µg/mL

Question: What about the “MIC … to inhibit growth” value (S. capitis; Exhibit A2) of the same compound?
Answer: <500 µg/mL

Question: What about the “MBC, minimum concentration required” value (S. xylosus; Exhibit A1) of the same compound?
Answer: 4000 µg/mL

Question: What about the “MIC … to inhibit growth” value (S. xylosus; Exhibit A2) of the same compound?
Answer: <500 µg/mL

Question: And the “MBC, minimum concentration required” value (E. coli)?
Answer: >10000 µg/mL

Question: And the “MBC, minimum concentration required” value (S. simulans; Exhibit A1)?
Answer: 10000 µg/mL

Question: And the “MIC … to inhibit growth” value (S. simulans; Exhibit A2)?
Answer: <500 µg/mL

Question: And the “MBC, minimum concentration required” value (Kleb. pnemoniae)?
Answer: >10000 µg/mL

Question: And the “MBC, minimum concentration required” value (Pseudomonas sp.; Exhibit A1)?
Answer: >10000 µg/mL

Question: What about the “MIC … to inhibit growth” value (Pseudomonas sp.; Exhibit A2) of the same compound?
Answer: <500 µg/mL

Question: And the “MBC, minimum concentration required” value (Pseudomonas aeruginosa; Exhibit A1)?
Answer: >10000 µg/mL

Question: What about the “MIC … to inhibit growth” value (Pseudomonas aeruginosa; Exhibit A2) of the same compound?
Answer: 1000 µg/mL

Question: And the “MBC, minimum concentration required” value (VRE; Exhibit A1)?
Answer: 15000 µg/mL and >15000 µg/mL

Question: What about the “MIC … to inhibit growth” value (VRE; Exhibit A2) of the same compound?
Answer: <500 µg/mL and 1000 µg/mL

Question: And the “MBC, minimum concentration required” value (S. epidermidis; Exhibit A1)?
Answer: 4000 µg/mL and 8000 µg/mL

Question: What about the “MIC … to inhibit growth” value (S. epidermidis; Exhibit A2) of the same compound?
Answer: <500 µg/mL

Question: What about the “MIC … to inhibit growth” value (MRSA) of the same compound?
Answer: 1000 µg/mL

Question: And the “MBC, minimum concentration required” value (Steno. maltophilia; Exhibit A1)?
Answer: >10000 µg/mL

Question: And the “MIC … to inhibit growth” value (Steno. maltophilia; Exhibit A2)?
Answer: 1000 µg/mL

Question: And the “MBC, minimum concentration required” value (Kleb. ornitholytica; Exhibit A1)?
Answer: >10000 µg/mL

Question: What about the “MIC … to inhibit growth” value (Kleb. ornitholytica; Exhibit A2) of the same compound?
Answer: 1000 µg/mL

Question: And the “MBC, minimum concentration required” value (Coryneform strait/amy; Exhibit A1)?
Answer: 1000 µg/mL

Question: What about the “MIC … to inhibit growth” value (Coryneform strait/amy; Exhibit A2) of the same compound?
Answer: <500 µg/mL

Question: And the “MBC, minimum concentration required” value (Cornyeform amycolatum; Exhibit A1)?
Answer: 1000 µg/mL

Question: And the “MIC … to inhibit growth” value (Cornyeform amycolatum; Exhibit A2)?
Answer: <500 µg/mL

Question: And the “MIC's, Minimum Inhibitory Concentration” value (C. albicans)?
Answer: 500 µg/mL

Question: And the “MIC's, Minimum Inhibitory Concentration” value (C. glabrata)?
Answer: 500 µg/mL

Question: And the “MIC's, Minimum Inhibitory Concentration” value (C. guilliermondii)?
Answer: 500 µg/mL

Question: What about the “MIC's, Minimum Inhibitory Concentration” value (C. tropicalis) of the same compound?
Answer: 1000 µg/mL

Question: What about the “MIC's, Minimum Inhibitory Concentration” value (C. parapsilosis) of the same compound?
Answer: 500 µg/mL

Question: And the “MIC … to inhibit growth” value (Ent. faeculm; Ent. faecuim, Exhibit A2)?
Answer: <500 µg/mL

Question: And the “MBC, minimum concentration required” value (Ent. faeculm; Ent. faeculm, Exhibit A1)?
Answer: 15000 µg/mL

Question: What about the “MIC's, Minimum Inhibitory Concentration” value (C. lucitaniae) of the same compound?
Answer: 500 µg/mL

Question: And the “anti-microbial (antifungal and antibacterial) properties compared with the disodium salt” value (variety of microbes)?
Answer: superior to disodium EDTA
